In patent US20030144243A1, “Combination of a crystalline drug form and atiotropium salt” (priority 2001, published 2003):

Experiment: resistivity in solution, crystalline versus amorphous form
Type: physicochemical
Conditions: compared with the amorphous form at an equivalent concentration in solution

## CCNC(=O)[C@H]1O[C@@H](n2cnc3c(NCC(c4ccccc4)c4ccccc4)nc(C(=O)NCCNC(=O)NC4CCN(c5ccccn5)CC4)nc32)[C@H](O)[C@@H]1O [crystalline form, 6-[(2,2-diphenylethyl)amino]-9-(N-ethyl-β-D-ribofuranosyluronamide)-N-(2-{N′-[1-(2-pyridyl)-4-piperidyl]ureido}ethyl)-9H-purine-2-carboxamide]
  resistivity in solution: higher resistivity than the amorphous form
